ChEMBL document CHEMBL3046484, “Fumigant toxicity of lemon eucalyptus oil constituents to acaricide-susceptible and acaricide-resistant Tetranychus urticae” (2011)

What was measured:
Type in all cases: functional
Tetranychus urticae [1] = assay: Insecticidal activity against acaricide-susceptible female Tetranychus urticae KST (two-spotted spider mite) in kidney bean assessed as mortality in 3 cm disks measured after 24 hr exposure by vapour-phase mortality bioassay
Tetranychus urticae [2] = assay: Insecticidal activity against abamectin-resistant female Tetranychus urticae ART-53 (two-spotted spider mite) in kidney bean assessed as mortality in 3 cm disks measured after 24 hr exposure by vapour-phase mortality bioassay
Tetranychus urticae [3] = assay: Insecticidal activity against pyridaben-resistant female Tetranychus urticae PRT-53 (two-spotted spider mite) in kidney bean assessed as mortality in 3 cm disks measured after 24 hr exposure by vapour-phase mortality bioassay
Tetranychus urticae [4] = assay: Insecticidal activity against fenpropathrin-resistant female Tetranychus urticae FRT-53 (two-spotted spider mite) in kidney bean assessed as mortality in 3 cm disks measured after 24 hr exposure by vapour-phase mortality bioassay
Tetranychus urticae [5] = assay: Insecticidal activity against chlorfenapyr-resistant female Tetranychus urticae CRT-53 (two-spotted spider mite) in kidney bean assessed as mortality in 3 cm disks measured after 24 hr exposure by vapour-phase mortality bioassay

| Structure (SMILES) | LC50 (Tetranychus urticae [1]) [microg/cm3] | LC50 (Tetranychus urticae [2]) [microg/cm3] | LC50 (Tetranychus urticae [3]) [microg/cm3] | LC50 (Tetranychus urticae [4]) [microg/cm3] | LC50 (Tetranychus urticae [5]) [microg/cm3] |
| --- | --- | --- | --- | --- | --- |
| CC1(C)C2CCC1(C)C(O)C2 (centres undefined) [BORNEOL] | >500 |  |  |  |  |
| CC(C)=CCCC(C)CCO (centres undefined) [CITRONELLOL] | 21.7 | 26 | 25.9 | 21.4 | 26.1 |
| C=C(C)[C@@H]1CC[C@@H](C)C[C@H]1O [ISOPULEGOL] | 30.3 | 29 | 27.7 | 30.1 | 30.7 |
| CC(=O)OCCC(C)CCC=C(C)C (centres undefined) [CITRONELLYL ACETATE] | 16.8 | 12.8 | 17.4 | 16.5 | 16.7 |
| C=CCc1ccc(O)c(OC)c1 [EUGENOL] | 24.6 | 27.8 | 31.7 | 28.6 | 25.9 |
| C=C1CC[C@@H]2[C@@H]([C@@H]3[C@H](C)CC[C@@H]13)C2(C)C [(+)-AROMADENDRENE] | >500 |  |  |  |  |
| C=CC(=C)CCC=C(C)C [MYRCENE] | 349.8 | 384.2 | 377.4 | 369.3 | 370.6 |
| CC1=CC=C(C(C)C)CC1 | 260 | 277.5 | 253.2 | 263.3 | 293.9 |
| Cc1ccc(C(C)C)cc1 [P-CYMENE] | 231.4 | 265.2 | 243.3 | 238.9 | 213.5 |
| C=C1CC[C@H]2O[C@]2(C)CC[C@@H]2[C@@H]1CC2(C)C [(-)-CARYOPHYLLENE OXIDE] | >500 |  |  |  |  |
| CC1=CC[C@H](C(C)C)C=C1 | 299.7 | 354.7 | 340.7 | 360.6 | 380.1 |
| C=C[C@]1(C)CC[C@@H](C(C)(C)O)O1 [(E)-LINALOOL OXIDE] | >500 |  |  |  |  |
| CC(C)=CCC/C(C)=C/CO [GERANIOL] | 32.1 | 33.3 | 33.2 | 26.8 | 32 |
| CC1CCC(C(C)C)C(O)C1 (centres undefined) [MENTHOL] | 12.9 | 13.7 | 12.9 | 12.8 | 13 |
| C=C1CC/C=C(\C)CC[C@@H]2[C@@H]1CC2(C)C [BETA-CARYOPHYLLENE] | 47.6 | 53.4 | 44.7 | 47.7 | 49.1 |
| CC1=CC[C@@](O)(C(C)C)CC1 | 36.9 | 38.7 | 43.7 | 40.8 | 36.7 |
| CC(C)=CCC[C@@H](C)CC=O [CITRONELLAL] | 33.9 | 34.9 | 34.9 | 34 | 34.8 |
| C=CC(C)(O)CCC=C(C)C (centres undefined) [LINALOOL] | 54.6 | 62.4 | 55 | 57.3 | 58.9 |
| C=C/C(C)=C/CC=C(C)C [OCIMENE] | 255 | 281.3 | 260.2 | 289.6 | 277.2 |
| CC(=O)OC/C=C(\C)CCC=C(C)C [GERANYL ACETATE] | 24.5 | 24 | 24.5 | 26.7 | 25.3 |
| CC12CCC(CC1)C(C)(C)O2 [EUCALYPTOL] | 275 | 256.3 | 263.7 | 249 | 298.4 |
| C=C(C)[C@H]1CC=C(C)CC1 [D-LIMONENE] | 246.7 | 277.6 | 288.5 | 284.3 | 333.3 |
